In assay [1] the test system is lymphocytic leukemia P388. In words: in vivo lymphocytic leukemia P388 test. Details: species or system CD2 F1 mice. Particulars: Mus musculus, P388, ip, 120 h, intraperitoneally once daily for five days, read-out: P388 in vivo T/C × 100. As to the method: Another test protocol is the in vivo lymphocytic leukemia P388 test. The animals used are either male or female CD2 F1 mice, six or seven animals per test group. The tumor transplant is by intraperitoneal injection of dilute ascitic fluid containing cells of lymphocytic leukemia P388. The test compounds are administered intraperitoneally once daily for five consecutive days at various doses following tumor inoculation. The animals are weighed and survivors are recorded on a regular basis for 30 days. A compound is designated "toxic" if, at a given dose, all animals died prior to four days after the first injection of drug. A ratio of survival time for treated (T)/control (C) animals is calculated. A criterion for efficacy is a ratio T/C times 100 greater than or equal to 125. See Cancer Chemotherapy Reports, Part 3, 3, 1 (1972) for a comprehensive discussion of the protocol.

The subject of assay [2] is Branhamella catarrhalis. In words: in vitro antibacterial (ABMF) microdilution susceptibility test. Type of assay: cell-based. Particulars: Moraxella catarrhalis; Mueller-Hinton broth, 37° C., 16-24 hours; read-out: ABMF Test M.I.C. B. cata. The text has this:
(§1) (d) Still another test protocol is the in vitro antibacterial (ABMF) test which is a recognized standard microdilution susceptibility procedure in Mueller-Hinton broth against gram-positive and gram-negative bacterial test organisms. The procedure is a modification of a state-of-the-art procedure reported in Manual of Clinical Microbiology, Lennette, E. H., ed., by Barry, A. L. and C. Thornsberry at pages 463-474 and by Gavan, T. L. and A. L. Barry at pages 459-462, American Society for Microbiology, Washington, 1980.
(§2) In the test, a given bacterial culture is used to inoculate individaul test wells of microdilution trays containing growth medium and test compound, the latter in a microdilution series: 1000, 333, 111, 37, 12, 4, 1.4, and 0.46 micrograms per milliliter. […] For convenience, values are reported for Escherichia coli, Branhamella catarrhalis, Alcaligenes viscolactis, Streptococcus pneumoniae, and Bacillus cereus

The subject of assay [3] is Streptococcus pneumoniae. The description is as above. Type of assay: cell-based. Conditions: Mueller-Hinton broth, 37° C., 16-24 hours, read-out: ABMF Test M.I.C. S. pneu.
From the text: as §1, §2

The subject of assay [4] is Bacillus cereus. The description is as above. Type of assay: cell-based. Particulars: Mueller-Hinton broth, 37° C., 16-24 hours, read-out: ABMF Test M.I.C. B. cere.
From the text: as §1, §2

The subject of assay [5] is Escherichia coli. The description is as above. Type of assay: cell-based. Particulars: Mueller-Hinton broth, 37° C., 16-24 hours, read-out: ABMF Test M.I.C. E. coli.
From the text: as §1, §2

Assay [6] concerns Alcaligenes viscolactis. Described as above. Type of assay: cell-based. Conditions: Mueller-Hinton broth, 37° C., 16-24 hours, read-out: ABMF Test M.I.C. A. visc.
From the text: as §1, §2

Assay [7] concerns HCT-8 cells. Description: in vitro proliferating human colon adenocarcinoma (HCA) cell screen, HCT-8. Type of assay: cell-based. Conditions: HCT-8 cells, 60 to 65 hours, ED50, read-out: HCA ED50 Avg. As to the method:
(a) One test protocol is the in vitro proliferating human colon adenocarcinoma (HCA) cell screen. In this test, HCT-8 cells (HCA cell line received from Yale University) are trypsinized using trypsin-EDTA. A single cell suspension is achieved by passing the cells through a 26 gauge needle with a 20-cc syringe. A cell suspension is prepared using RPMI 1640+10% FCS+50 μg/ml gentamicin sulfate with a cell concentration is approximately 30,000 cells/ml. The cell suspension is dispensed in Linbro 24-well plates; 1 ml/well. The plates are incubated for approximately 48 hours at 37° C. in a 5% CO2 atmosphere. At this time test compounds are added in the appropriate concentration. Five μl of the 200 μg/ml stock solution is added to each well in a primary test. […] of the appropriate dilution is added to each well for a titration test. The plates are reincubated an additional 60 to 65 hours at 37° C. in a 5% CO 2 atmosphere. The cells are lysed using a mix of cationic surfactant, glacial acetic acid, and sodium chloride. Two ml of the lysed cell suspension from each well is added to 8 ml of diluent. The number of nuclei is determined using a Coulter counter (ZBI model), and a percent growth for each drug concentration is calculated. From this, and ID50 (molar concentration of compound that results in 50% inhibition of growth) is determined.

Structures can show the parent of a compound that is named as a salt.

6 molecules from patent publication US4555572A, “Pyrazolo[3,4,5-kl]acridine compositions and methods for their production and use” (Warner-Lambert Company, priority 1984, dated 1985) can be followed below.

As for `CCN(CC)CCn1nc2c3c(c([N+](=O)[O-])ccc31)Nc1ccc(OC(C)=O)cc1-2` [Example 27, 2-[2-(Diethylamino)ethyl]-2,6-dihydro-5-nitropyrazolo[3,4,5-kl]acridin-9-ol, acetate (ester), methanesulfonate (salt) (1:1)], the response vs control in vivo at 1.56 mg/kg in assay [1] is 158%. The response vs control in vivo at 3.12 mg/kg in assay [1] came to 218%. Besides, the response vs control in vivo at 6.25 mg/kg in assay [1] is 165%. Besides, the MIC in assay [2] was determined as 0.46 µg/mL; in assay [3], 1.4 µg/mL; in assay [4], 4.1 µg/mL; in assay [5], 12.3 µg/mL; in assay [6], 0.46 µg/mL. Moreover, the IC50 in assay [7] stood at 5.3 nM.

For `CCCOc1ccc2c(c1)-c1nn(CCN(CC)CC)c3ccc([N+](=O)[O-])c(c13)N2.CS(=O)(=O)O` [Example 19, N,N-Diethyl-5-nitro-9-propoxypyrazolo[3,4,5-kl]acridine-2(6H)-ethanamine, methanesulfonate salt (1:1)], the response vs control in vivo at 3.12 mg/kg in assay [1] came out at 137%. Also, the response vs control in vivo at 6.25 mg/kg in assay [1] was 167%. The MIC in assay [2] was under 0.46 µg/mL; in assay [3] it was under 0.46 µg/mL; in assay [4], 12.3 µg/mL; in assay [5], 1000 µg/mL; in assay [6], under 0.46 µg/mL. Besides, the IC50 in assay [7] is 310 nM.

For `CCN(CC)CCn1nc2c3c(c([N+](=O)[O-])ccc31)Nc1c(OC)cccc1-2.CS(=O)(=O)O` [Example 17, N,N-Diethyl-7-methoxy-5-nitropyrazolo[3,4,5-kl]acridine-2(6H)-ethanamine, methanesulfonate (1:1)], the response vs control in vivo at 12.5 mg/kg in assay [1] turned out to be 106%. Besides, the MIC in assay [2], in assay [3], in assay [4], in assay [5] and in assay [6] was under 0.46 µg/mL throughout. The IC50 in assay [7] was determined as 510 nM.

Take `CCCCOc1ccc2c(c1)-c1nn(CCNCCO)c3ccc([N+](=O)[O-])c(c13)N2` [Example 41, 2-[[2-(9-Butoxy-5-nitropyrazolo[3,4,5-kl]acridin-2(6H)-yl)ethyl]amino]ethanol, methanesulfonate, hemihydrate]: the response vs control in vivo at 1.56 mg/kg in assay [1] was found to be 141%. Moreover, the response vs control in vivo at 3.12 mg/kg in assay [1] stood at 147%. In assay [1], the response vs control in vivo at 6.25 mg/kg was determined as 159%. For the same molecule, the response vs control in vivo at 12.5 mg/kg in assay [1] stood at 174%. Moreover, the MIC was 1.4 µg/mL in assay [2]; 12.3 µg/mL in assay [3]; 12.3 µg/mL in assay [4]; 3.7 µg/mL in assay [5]; under 0.46 µg/mL in assay [6]. The IC50 in assay [7] was 340 nM.

Take `CN(C)CCCn1nc2c3c(c([N+](=O)[O-])ccc31)Nc1ccc(O)cc1-2` [Example 44, 2-[3-(Dimethylamino)propyl]-2,6-dihydro-5-nitropyrazolo[3,4,5-kl]acridin-9-ol, methanesulfonate]: the response vs control in vivo at 0.39 mg/kg in assay [1] (0.39 mg/kg) was 162%. Moreover, in assay [1] (0.78 mg/kg), the response vs control in vivo at 0.78 mg/kg came out at 182%. Further, in assay [1], the response vs control in vivo at 1.56 mg/kg was found to be 200%. In addition, the response vs control in vivo at 3.12 mg/kg in assay [1] is 270%. Moreover, the MIC in assay [2] is under 0.46 µg/mL; in assay [3] it was 0.46 µg/mL; in assay [4], 0.46 µg/mL; in assay [5] it was under 0.46 µg/mL; in assay [6], under 0.46 µg/mL. In addition, the IC50 in assay [7] turned out to be 12 nM.

For the molecule `CCOc1ccc2c(c1)-c1nn(CCCN(C)C)c3ccc([N+](=O)[O-])c(c13)N2.CS(=O)(=O)O` [Example 46, 9-Ethoxy-N,N-dimethyl-5-nitropyrazolo[3,4,5-kl]acridine-2(6H)-propanamine, methanesulfonate (1:1)], the response vs control in vivo at 1.56 mg/kg in assay [1] was 132%. For the same molecule, in assay [1], the response vs control in vivo at 3.12 mg/kg amounted to 137%. In addition, the response vs control in vivo at 6.25 mg/kg in assay [1] was found to be 169%. For the same molecule, the response vs control in vivo at 12.5 mg/kg in assay [1] is 232%. Besides, the MIC in assay [2] is 1.4 µg/mL; in assay [3], 4.1 µg/mL; in assay [4], 4.1 µg/mL; in assay [5] it was 12.3 µg/mL; in assay [6], under 0.46 µg/mL. The IC50 in assay [7] is 55 nM.
